This note sets out measurements from patent US9242984B2, “Pyrazolyl derivatives as Syk inhibitors” (Merck Sharp & Dohme Corp., priority 2012, dated 2016).

Bounds are passed on as bounds.

The first test concerns the target T1, recombinant human Syk (GST-hSyk fusion protein) (Homo sapiens, UniProt P43405).
T1 construct: purchased Carna Biosciences 08-176
Briefly: Homogeneous Time-Resolved Fluorescence (HTRF) assay for the recombinant human Syk enzyme. The format is biochemical. Conditions: 10-dose titration, 25 μM ATP; read-out: rhSYK IC50. The protocol: Syk inhibition may be determined using the following assay protocol:
Homogeneous Time-Resolved Fluorescence (HTRF) Assay for the Recombinant Human Syk Enzyme:
A recombinant GST-hSyk fusion protein was used to measure potency of compounds to inhibit human Syk activity. The recombinant human GST-Syk (Carna Biosciences #08-176) (5 pM final concentration) was incubated with various concentrations of the inhibitor diluted in DMSO (0.1% final concentration) for 10 minutes at room temperature in 15 mM Tris-HCl (pH 7.5), 0.01% tween 20, 2 mM DTT in 384 well plate format. To initiate the reaction the biotinylated substrate peptide (250 nM final concentration) that contains the phosphorylation site for Syk was added with magnesium (5 mM final concentration) and ATP (25 μM final concentration). Final volume of the reaction was 10 μL. Phosphorylation of the peptide was allowed to proceed for 45 minutes at room temperature. To quench the reaction and detect the phosphorylated product, 2 nM of a Europium-anti-phosphotyrosine antibody (Perkin Elmer #AD0161) and 70 nM SA-APC (Perkin-Elmer #CR130-100) were added together in 15 mM Tris pH 7.5, 40 mM EDTA, 0.01% tween 20. Final volume of the quenching solution was 10 μL. The resulting HTRF signal was measured after 30 minutes on an EnVision (Perkin-Elmer) reader using a time-resolved fluorescence protocol. IC50 was determined following 10-dose titration (10 μM to 0.508 nM) and four parameter logistic curve fitting using the Merck Assay Data Analyzer. The rhSyk activity (IC50) is expressed as +++(100 nM or less), ++(between 100 and 1000 nM), +(between 1 and 10 μM).
Take `Cc1cc(Nc2nccc(C(F)(F)F)n2)cc(-c2cnn(CC(O)c3ccccc3)c2)c1` (racemic) [Example 5.1, 2-(4-(3-methyl-5-((4-(trifluoromethyl)pyrimidin-2-yl)amino)phenyl)-1H-pyrazol-1-yl)-1-phenylethanol]: the IC50 came out at 58.5 nM.

On to `Cc1cc(Nc2ncc(F)c(C(F)F)n2)cc(-c2cnn([C@H]3CCC[C@H](O)[C@@H]3O)c2)c1` (relative stereo) [Example 10.12, 3-[4-(3-{[4-(difluoromethyl)-5-fluoro-pyrimidin-2-yl]amino}-5-methylphenyl)-1H-pyrazol-1-yl]cyclohexane-1,2-diol], for which the IC50 came out at 4.7 nM.

Regarding `Cc1cc(Nc2nccc(C(F)(F)F)n2)cc(-c2cnn(C3CCNC(=O)CC3)c2)c1` (single isomer, unassigned) [14.1 (enantiomer 1)], the IC50 came to 28 nM.

On to `Cc1cc(Nc2nccc(C(F)(F)F)n2)cc(-c2cnn(C3CCNC(=O)CC3)c2)c1` (single isomer, unassigned) [14.1 (enantiomer 2)], for which the IC50 stood at 10.1 nM.

On to `Cc1cc(Nc2nccc(C(F)(F)F)n2)cc(-c2cnn(CC3CN(C)C(=O)O3)c2)c1` (single isomer, unassigned) [Example 3.1, 3-methyl-5-{[4-(3-methyl-5-{[4-(trifluoromethyl)pyrimidin-2-yl]amino}phenyl)-1H-pyrazol-1-yl]methyl}-1,3-oxazolidin-2-one], for which the IC50 came to 31.2 nM.

On to `Cc1cc(Nc2nccc(C(F)(F)F)n2)cc(-c2cnn(CC(O)C(N)=O)c2)c1` (single isomer, unassigned) [Example 7.1, (R or S)-2-hydroxy-3-[4-(3-methyl-5-{[4-(trifluoromethyl)pyrimidin-2-yl]amino}phenyl)-1H-pyrazol-1-yl]propanamide], for which the IC50 was 1.1 nM.

For `Cc1cc(Nc2nccc(C(F)(F)F)n2)cc(-c2cnn(CC(C)(O)C(N)=O)c2)c1` (single isomer, unassigned) [Example 8.1, (R or S) 2-hydroxy-2-methyl-3-[4-(3-methyl-5-{[4-(trifluoromethyl)pyrimidin-2-yl]amino}phenyl)-1H-pyrazol-1-yl]propanamide], the IC50 stood at 1 nM.

Staying with this test, now noted: IC50 class; 10-dose titration, 25 μM ATP; read-out: rhSYK Activity.
Consider “1-[4-(3-methyl-5-{[4-(trifluoro-ethyl)pyrimidin-2-yl]amino}-phenyl)-1H-pyrazol-1-yl]-3-morpholin-4-ylpropan-2-ol [Example 5.10]”, for which the IC50 was at most 100 nM.

As to “3-[4-(4-methyl-6-{[4-(trifluoromethyl)pyridin-2-yl]amino}pyrimidin-2-yl)-1H-pyrazol-1-yl]propanoic acid [Example 1.40]”, the IC50 is at most 100 nM.

Consider “4-{1-[4-(4-methyl-6-{[4-(trifluoromethyl)pyridin-2-yl]amino}pyridin-2-yl)-1H-pyrazol-1-yl]ethyl}pyrrolidin-2-one [Example 1.32]”, for which the IC50 is at most 100 nM.

As for “4-{[4-(4-methyl-6-{[4-(trifluoromethyl)-pyridin-2-yl]amino}-pyridin-2-yl)-1H-pyrazol-1-yl]methyl}-pyrrolidin-2-one [Example 1.39]”, the IC50 is at most 100 nM.

Consider “4-{[4-(4-methyl-6-{[4-(trifluoromethyl)pyridin-2-yl]amino}pyridin-2-yl)-1H-pyrazol-1-yl]-methyl}pyrrolidin-2-one [Example 1.38]”, for which the IC50 is at most 100 nM.

On to “4-{[4-(6-{[4-(difluoromethyl)pyridin-2-yl]amino}-4-methylpyridin-2-yl)-1H-pyrazol-1-yl)methyl}pyrrolidin-2-one [Example 1.37]”, for which the IC50 was at most 100 nM.

For the compound “4-{[4-(6-{[4-(difluoromethyl)pyridin-2-yl]amino}-4-methylpyridin-2-yl)-1H-pyrazol-1-yl]methyl}pyrrolidin-2-one [Example 1.35]”, the IC50 is at most 100 nM.

Consider “5-{[4-(3-{[4-(1,1-difluoromethyl)pyrimidin-2-yl]amino}-5-methylphenyl)-1H-pyrazol-1-yl]methyl}-4-methyl-1,3-oxazolidin-2-one [Example 23.11]”, for which the IC50 is at most 100 nM.

For “6-methyl-2-(1H-pyrazol-4-yl)-N-[4-(trifluoro-methyl)pyridin-2-yl]pyrimidin-4-amine [Example 1.41]”, the IC50 is at most 100 nM.

For the compound “6-methyl-2-pyrazolo-[1,5-a]pyridin-3-yl-N-[4-(trifluoromethyl)-pyridin-2-yl]pyrimidin-4-amine [Example 1.42]”, the IC50 was at most 100 nM.

For `Cc1cc(Nc2nccc(C(F)(F)F)n2)cc(-c2cnn(CC(O)C(F)(F)F)c2)c1` (racemic) [Example 3.43, 1,1,1-trifluoro-3-[4-(3-methyl-5-{[4-(trifluoromethyl)pyrimidin-2-yl]amino}phenyl)-1H-pyrazol-1-yl]propan-2-ol], the IC50 is at most 100 nM.

For the compound `Cc1cc(Nc2nccc(C(F)(F)F)n2)cc(-c2cnn(CC(O)c3ccccc3)c2)c1` (racemic) [Example 5.1, 2-(4-(3-methyl-5-((4-(trifluoromethyl)pyrimidin-2-yl)amino)phenyl)-1H-pyrazol-1-yl)-1-phenylethanol], the IC50 is at most 100 nM.

For `COC(=O)C(C)(O)Cn1cc(-c2cc(C)cc(Nc3nccc(C(F)(F)F)n3)c2)cn1` (racemic) [Example 5.4, methyl 2-hydroxy-2-methyl-3-[4-(3-methyl-5-{[4-(trifluoro-methyl)pyrimidin-2-yl]amino}phenyl)-1H-pyrazol-1-yl]propanoate], the IC50 was at most 100 nM.

On to `Cc1cc(Nc2nccc(C(F)(F)F)n2)cc(-c2cnn(CC(C)(O)C(=O)O)c2)c1` (racemic) [Example 5.6, 2-hydroxy-2-methyl-3-[4-(3-methyl-5-{[4-(trifluoro-methyl)pyrimidin-2-yl]amino}-phenyl)-1H-pyrazol-1-yl]propanoic acid], for which the IC50 was at most 100 nM.

In the case of `CCC(O)Cn1cc(-c2cc(C)cc(Nc3nccc(C(F)(F)F)n3)c2)cn1` (racemic) [Example 5.9, 1-[4-(3-methyl-5-{[4-(trifluoro-methyl)pyrimidin-2-yl]amino}-phenyl)-1H-pyrazol-1-yl]butan-2-ol], the IC50 was at most 100 nM.

With `Cc1cc(-c2cnn(CC(O)CF)c2)cc(N(CC(O)CF)c2nccc(C(F)(F)F)n2)c1` (racemic) [Example 5.13, 1-fluoro-3-({3-[1-(3-fluoro-2-hydroxy-propyl)-1H-pyrazol-4-yl]-5-methyl-phenyl}-[4-(trifluoromethyl)-pyrimidin-2-yl]-amino)propan-2-ol], the IC50 is 100 to 1000 nM.

Consider `Cc1cc(Nc2nccc(C(F)(F)F)n2)cc(-c2cnn(CC(O)C(=O)O)c2)c1` (racemic) [Example 5.14, 2-hydroxy-3-[4-(3-methyl-5-{[4-(trifluoro-methyl)pyrimidin-2-yl]amino}-phenyl)-1H-pyrazol-1-yl]propanoic acid], for which the IC50 was at most 100 nM.

With `Cc1cc(Nc2nccc(C(F)(F)F)n2)cc(-c2cnn(CC(O)CO)c2)c1` (racemic) [Example 5.15, 3-[4-(3-methyl-5-{[4-(trifluoromethyl)-pyrimidin-2-yl]amino}-phenyl)-1H-pyrazol-1-yl]propane-1,2-diol], the IC50 is at most 100 nM.

Consider `Cc1cc(Nc2nccc(C(F)(F)F)n2)cc(-c2cnn(C(C)C(N)=O)c2)c1` (racemic) [Example 8.8, 2-[4-(3-methyl-5-{[4-(trifluoromethyl)-pyrimidin-2-yl]amino}phenyl)-1H-pyrazol-1-yl]propanamide], for which the IC50 was at most 100 nM.

As to `Cc1cc(Nc2nccc(C(F)(F)F)n2)cc(-c2cnn(CC(C)(O)C(N)=O)c2)c1` (racemic) [Example 8.11, 2-hydroxy-2-methyl-3-[4-(3-methyl-5-{[4-(trifluorometh-yl)pyrimidin-2-yl]amino}-phenyl)-1H-pyrazol-1-yl]propanamide], the IC50 is at most 100 nM.

In the case of `Cc1cc(Nc2ncc(F)c(C(F)F)n2)cc(-c2cnn([C@H]3CCC[C@H](O)[C@@H]3O)c2)c1` (relative stereo) [Example 10.12, 3-[4-(3-{[4-(difluoromethyl)-5-fluoro-pyrimidin-2-yl]amino}-5-methylphenyl)-1H-pyrazol-1-yl]cyclohexane-1,2-diol], the IC50 is at most 100 nM.

`Cc1cc(Nc2nccc(C(F)(F)F)n2)cc(-c2cnn(C3CCNC(=O)CC3)c2)c1` (single isomer, unassigned) [14 (isomer 1)]: the IC50 is at most 100 nM.

For the compound `Cc1cc(Nc2nccc(C(F)(F)F)n2)cc(-c2cnn(CC3CNC(=O)O3)c2)c1` (single isomer, unassigned) [Example 2.4, 5-{[4-(3-methyl-5-{[4-(trifluoromethyl)-pyrimidin-2-yl]-amino}phenyl)-1H-pyrazol-1-yl]methyl}-1,3-oxazolidin-2-one], the IC50 was at most 100 nM.

In the case of `Cc1cc(Nc2nccc(C(F)(F)F)n2)cc(-c2cnn(CC3CN(C)C(=O)O3)c2)c1` (single isomer, unassigned) [Example 3.1, 3-methyl-5-{[4-(3-methyl-5-{[4-(trifluoromethyl)pyrimidin-2-yl]amino}phenyl)-1H-pyrazol-1-yl]methyl}-1,3-oxazolidin-2-one], the IC50 is at most 100 nM.

As for `Cc1cc(Nc2nccc(C(F)(F)F)n2)cc(-c2cnn(CC(O)C(F)(F)F)c2)c1` (single isomer, unassigned) [Example 3.44, 1,1,1-trifluoro-3-[4-(3-methyl-5-{[4-(trifluoromethyl)pyrimidin-2-yl]amino}phenyl)-1H-pyrazol-1-yl]propan-2-ol], the IC50 was at most 100 nM.

On to `Cc1cc(Nc2nccc(C(F)(F)F)n2)cc(-c2cnn(CC(O)C(F)(F)F)c2)c1` (single isomer, unassigned) [Example 3.45, 1,1,1-trifluoro-3-[4-(3-methyl-5-{[4-(trifluoromethyl)pyrimidin-2-yl]amino}phenyl)-1H-pyrazol-1-yl]propan-2-ol], for which the IC50 is at most 100 nM.

With `Cc1cc(Nc2nccc(C(F)(F)F)n2)cc(-c2cnn(CC(O)C(N)=O)c2)c1` (single isomer, unassigned) [Example 7.1, (R or S)-2-hydroxy-3-[4-(3-methyl-5-{[4-(trifluoromethyl)pyrimidin-2-yl]amino}phenyl)-1H-pyrazol-1-yl]propanamide], the IC50 was at most 100 nM.

Regarding `Cc1cc(Nc2nccc(C(F)(F)F)n2)cc(-c2cnn(CC(C)(O)C(N)=O)c2)c1` (single isomer, unassigned) [Example 8.1, (R or S) 2-hydroxy-2-methyl-3-[4-(3-methyl-5-{[4-(trifluoromethyl)pyrimidin-2-yl]amino}phenyl)-1H-pyrazol-1-yl]propanamide], the IC50 was at most 100 nM.
